Source: PubChem BioAssay (NCI)
Several values for one entry are separate records, joined by “and”; a condition that tells them apart may be missing. Equal values may be shown once.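 Method: 48-hour compound exposure of cells in 96-well plates, five concentrations, linear interpolation of endpoints. GI50 is the concentration that inhibits growth by half. TGI: concentration producing complete growth inhibition.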

How the values were obtained:
Test in all cases: DTP human tumour cell line panel, 48 h
ACHN renal = system: ACHN renal
HT29 colon = system: HT29 colon
MCF7 breast = system: MCF7 breast
MOLT-4 leukemia = system: MOLT-4 leukemia
NCI-H226 lung = system: NCI-H226 lung
OVCAR-8 ovarian = system: OVCAR-8 ovarian
SF-268 CNS = system: SF-268 CNS
SF-295 CNS = system: SF-295 CNS
SNB-19 CNS = system: SNB-19 CNS
TK-10 renal = system: TK-10 renal

Row | SMILES | GI50 (ACHN renal) | TGI (ACHN renal) | GI50 (HT29 colon) | TGI (HT29 colon) | GI50 (MCF7 breast) | TGI (MCF7 breast) | GI50 (MOLT-4 leukemia) | TGI (MOLT-4 leukemia) | GI50 (NCI-H226 lung) | TGI (NCI-H226 lung) | GI50 (OVCAR-8 ovarian) | TGI (OVCAR-8 ovarian) | GI50 (SF-268 CNS) | TGI (SF-268 CNS) | GI50 (SF-295 CNS) | TGI (SF-295 CNS) | GI50 (SNB-19 CNS) | TGI (SNB-19 CNS) | GI50 (TK-10 renal) | TGI (TK-10 renal)
1 | O=[N+]([O-])c1ccc(Nc2ccccc2-c2ccccc2)c2nonc12 | 20.8 µM | 87.5 µM | 19.3 µM | 47.2 µM | 15.3 µM | > 72.4 µM | 20 µM | 88.2 µM | 14 µM | 40.5 µM | 21.1 µM | 75.9 µM | 14.9 µM | 36.8 µM | 11.7 µM | 29.7 µM | 14.5 µM | 32.3 µM | 22.8 µM | 59.6 µM
2 | CCSc1nnc2c(-c3ccccc3)n[nH]c2n1 |  | > 100 µM |  | > 100 µM |  | > 100 µM |  | > 100 µM |  | > 100 µM |  | > 100 µM |  | > 100 µM |  | > 100 µM |  | > 100 µM |  | > 100 µM
3 | COc1cccc2c1C(=O)c1c(O)c3c(c(O)c1C2=O)CC(O)(C(C)=O)CC3OC1CC(N)C(O)C(C)O1 (stereo not drawn) | 0.0176 µg/mL | 0.1 µg/mL | 0.0242 µg/mL | 1.22 µg/mL |  | 0.484 µg/mL |  | 0.019 µg/mL |  | 0.155 µg/mL | 0.0205 µg/mL | 0.393 µg/mL |  | 0.262 µg/mL | 0.0286 µg/mL | 0.168 µg/mL | 0.0198 µg/mL | 2.11 µg/mL | 0.273 µg/mL | 18.6 µg/mL
4 | Cc1cc(C)nc(NC(N)=NCCc2ccccc2)n1 | 4.94 µM | > 100 µM | 3.02 µM | > 100 µM | 2.72 µM | 73.6 µM | 6.01 µM | > 100 µM | 5.06 µM | > 100 µM | 3.69 µM | 34.8 µM | 3.4 µM | 41.9 µM | 1.64 µM | 5.44 µM | 4.55 µM | > 100 µM | 17.6 µM | > 100 µM
5 | C[n+]1c(/C=C\C=C\N2CCCCC2)sc2ccccc21 | 4.07 µM | > 53.4 µM | 0.321 µM | 11.7 µM | 0.346 µM | 11.8 µM | 0.401 µM | 9.42 µM | 1.05 µM | 22.4 µM | 0.384 µM | 5.01 µM | 0.457 µM | 14.8 µM | 0.385 µM | 2.36 µM | 0.538 µM | 17.2 µM | 2.19 µM | 16.5 µM
6 | CNC(=O)c1cc(COc2nnc(Nc3ccc(Cl)cc3)c3ccoc23)ccn1 | 3.86 µM and 7.18 µM | 15.4 µM and > 10 µM | 9.45 µM and > 10 µM | 31.2 µM and > 10 µM | 7.17 µM and > 10 µM | 36.1 µM and > 10 µM | 22.6 µM and > 10 µM | > 81.3 µM | 3.01 µM and 8.73 µM | 13.1 µM and > 10 µM | 3.66 µM and 5.78 µM | 17.1 µM and > 10 µM | 4.66 µM and > 10 µM | 26.2 µM and > 10 µM | 6.39 µM and > 10 µM | 24.9 µM and > 10 µM | 2.88 µM and > 10 µM | 21.4 µM and > 10 µM | 3.59 µM and 8.84 µM | 11.8 µM and > 10 µM
7 | Cc1ccc(C(=O)N(CCCN)[C@@H](c2nc3cc(Cl)ccc3c(=O)n2Cc2ccccc2)C(C)C)cc1 | 0.798 µM | 2.38 µM and 2.15 µM | < 0.01 µM | 1.03 µM and 1.49 µM | < 0.01 µM | 1.59 µM and 1.33 µM | < 0.01 µM | 3.87 µM and 1.45 µM | 0.325 µM | 2.25 µM and 2.5 µM | < 0.01 µM | 1.52 µM and 2.11 µM |  | 1.97 µM and 2.35 µM | < 0.01 µM |  | < 0.01 µM | 2.12 µM and 1.9 µM |  | 1.71 µM and 2.81 µM
8 | O=[As](O)(O)c1ccc(NCc2ccccc2)cc1 |  | > 100 µM |  | > 100 µM |  | > 100 µM |  | > 100 µM |  | > 100 µM |  | > 100 µM |  | > 100 µM |  | > 100 µM |  | > 100 µM |  | > 100 µM
9 | C(=Nc1ccccc1)C1CCCC[N-]1.C(=Nc1ccccc1)C1CCCC[N-]1.[Cu+2].[O-][Cl+3]([O-])([O-])O (stereo not drawn) | 1.45 µM | 12.3 µM | 15.5 µM | 30.8 µM | 23.8 µM | > 100 µM | 4.16 µM | 11.7 µM | 21.6 µM | 50 µM | > 39.7 µM | > 95.2 µM | 26.9 µM | > 89.6 µM | 3.13 µM | 18.8 µM | 9.94 µM | 38.4 µM | 9.8 µM | 32.7 µM
10 | Cc1c2cc[nH]c(=O)c2c(C)c2c1[nH]c1cc(OCCN3CCN(C)CC3)ccc12 | 0.473 µM | 3.83 µM | 0.432 µM | 2.03 µM | 0.577 µM | 6.73 µM | 0.456 µM | 5.51 µM | 0.503 µM | 2.38 µM | 0.457 µM | 6.08 µM | 0.74 µM | 7.97 µM | 0.788 µM | 7.76 µM | 0.946 µM | 11.2 µM | 2.73 µM | 13.7 µM
